Source: patent publication US7361685B2, “Compounds for use in the treatment of skin conditions” (Oregon Health & Science University, priority 2001, dated 2008)
Where “and” joins values, the source holds several entries; their conditions need not be identical. Identical values can stand only once.

Experiments:
mouse melan-a cell line = test: Microplate culture and sulforhodamine B (SRB) proliferation assay, melan-a melanocytes; type: cell-based
Experimental: A supplemental growth medium of 10% foetal bovine serum (FBS) was added to the […] microtiter plates. The plates were incubated at 37° C. in a 10% CO2, 90% air humidified atmosphere for 4 days. At the end of the incubation, an SRB assay was performed. Briefly, cells attached to the bottom of the plate were fixed by addition of cold trichloroacetic acid (TCA, 4° C., Aldrich, Dorset, UK) on the top of the growth medium (final TCA 20% w/v). The plate was placed at 4° C. for 1 hour before being gently washed five times with tap water. It was allowed to dry in air, or aided with a hair dryer to speed up the drying process, then 50 μl of […] SRB dissolved in 1% acetic acid in water was added to each well for 30 min. At the end of the staining period, unbound SRB was removed by washing 4 times with 1% acetic acid. The plate was air dried again, and 150 μl of 10 mM aqueous Tris base (Sigma-Aldrich Co. Ltd, Irvine, UK) was added into each well to solubilize the cell-bound dye. […] A control assay was carried out on cells incubated without test compound. There were 2 or 3 series of experiments, each of which consisted of six replicate experiments.
Various compounds of formula (1) were synthesised and tested for melanocyte (mouse melan-a) proliferant activity in-vitro. Cells were incubated with the test compound for 4 days, as described above.
Percentage cell growth was obtained with a given compound calculated as (optical density in the presence of the compound/control optical density)×100.
Melan-a cell proliferant activity for tested compounds was compared with that obtained with piperine. […] All figures are given with Standard Error of the Mean.

melan-a cells = test: Dendricity of melan-a cells by observation under microscope; type: cell-based, mouse; parameters: key to Dendricity of RV-A08: +++: highly dendiitic; ++: moderately dendritic; +: weakly dendritic; key to Dentricity of RV-A07 / Dendricity of RV-A09 / Dendricity of RV-A10 / Dendricity: +++: highly dendritic; ++: moderately dendritic; +: weakly dendritic; −: no effect
Description: Effect on dendricity of melan-a cells by the test compounds was by observation under microscope. Dendricity is relevant to vitiligo since normal skin melanocytes have dendrites, but in vitiligo the melanocytes seem to lose these before they disappear from the patches.

| Molecule | Percentage cell growth (mouse melan-a cell line; 1 μM, 4 days, ± SEM) | Stimulant activity (mouse melan-a cell line; 10 μM) | Percentage cell growth (mouse melan-a cell line; 10 μM, 4 days, ± SEM) | Percentage cell growth (mouse melan-a cell line; 50 μM, 4 days, ± SEM) | Percentage cell growth (mouse melan-a cell line; 100 μM, 4 days, ± SEM) | Dentricity of RV-A07 (melan-a cells; 10 μM) | Percentage cell growth (Repeated experiments) Test cpd. (mouse melan-a cell line; 10 μM test compound, 4 days, OD vs control x100, ± SEM) | Percentage cell growth (mouse melan-a cell line; 25 μM, 4 days, ± SEM) | Dendricity of RV-A10 (melan-a cells; 10 μM) | Dendricity of RV-A10 (melan-a cells; 50 μM) | Percentage cell growth (Repeated experiments) Piperine (mouse melan-a cell line; 10 μM piperine run alongside the test compound, 4 days, ± SEM) | Dendricity of RV-A08 (melan-a cells; 10 μM) | Dendricity (melan-a cells; 1 μM (tables RV-C04, RV-C05)) | Dendricity (melan-a cells; 10 μM (tables RV-C04, RV-C05)) | Dendricity (melan-a cells; 50 μM (tables RV-C04, RV-C05)) | Dendricity (melan-a cells; 100 μM (tables RV-C04, RV-C05)) | Dendricity of RV-A09 (melan-a cells; 10 μM) |
| --- | --- | --- | --- | --- | --- | --- | --- | --- | --- | --- | --- | --- | --- | --- | --- | --- | --- |
| CNC(=O)/C=C/C=C/c1ccc2c(c1)OCO2 [RV-A07, 5-E,E-piperinoylmethylamine] | 140 ± 12 % | Positive | 170 ± 24 % | 71 ± 5% | 46 ± 2% | ++ |  |  |  |  |  |  |  |  |  |  |  |
| O=C(/C=C/C=C/c1ccc2c(c1)OCO2)N1CCOCC1 [RV-A02, 5-E,E-piperinoyl morpholine] | 125 ± 10% | Positive | 167 ± 17 % | 168 ± 12**□ % |  |  | 156 ± 58% and 187 ± 40% and 153 ± 19% | 171 ± 8 % |  |  |  |  |  |  |  |  |  |
| O=C(/C=C/C=C/c1ccc2c(c1)OCO2)NC1CCCCC1 [RV-A10, 5-E,E-piperinoyl cyclohexylamine] | 301 ± 20**□ % | Positive | 308 ± 29 % | 155 ± 22**□ % | 100 ± 13% |  |  |  | +++ | ++ |  |  |  |  |  |  |  |
| O=C(/C=C/C=C/c1ccc2c(c1)OCO2)N1CCCCC1 [Piperine, reference compound] | 147 ± 11**♦ % and 211 ± 16**♦ % and 216 ± 14**♦ % and 221 ± 17**♦ % and 236 ± 30 % and 191 ± 12**♦ % and 161 ± 13 % |  | 192 ± 13**♦ % and 216 ± 33 % and 236 ± 17 % and 263 ± 16 % and 302 ± 17 % and 216 ± 18 % and 192 ± 2**♦ % |  |  |  |  | 167 ± 19 % |  |  | 236 ± 17% and 263 + 16** % and 302 ± 17 % and 210 ± 65% and 170 ± 22% and 155 ± 19% and 216 ± 33 % |  |  |  |  |  |  |
| CCNC(=O)/C=C/C=C/c1ccc2c(c1)OCO2 [RV-A08] | 139 ± 27 % | Positive | 200 ± 14 % | 81 ± 12% | 62 ± 13% |  |  |  |  |  |  | +++ |  |  |  |  |  |
| 7-(3,4-methylenedioxy phenyl)-heptanoic acid piperidineamide [RV-C05] | 118 ± 1% |  | 160 ± 5**♦ % | 158 ± 19 % | 113 ± 15% |  |  |  |  |  |  |  | + | ++ | ++ | + |  |
| O=C(CCCCc1ccc2c(c1)OCO2)NC1CCCCC1 [RV-C04, 5-(3,4-methylenedioxyphenyl)-pentanoic acid cyclohexylamide] | 129 ± 6 % |  | 192 ± 6 % | 192 ± 10 % | 191 ± 12 % |  |  |  |  |  |  |  | + | +++ | +++ | +++ |  |
| CC(C)NC(=O)/C=C/C=C/c1ccc2c(c1)OCO2 [RV-A09, 5-E,E-piperinoylisopropylamine] | 187 ± 15 % | Positive | 224 ± 19 % | 85 ± 5% | 42 ± 6% |  |  |  |  |  |  |  |  |  |  |  | +++ |
